This is an account of results in PMC9295577, “Parasite Viability as a Measure of In Vivo Drug Activity in Preclinical and Early Clinical Antimalarial Drug Assessment” (Antimicrobial Agents and Chemotherapy, 2022).

Series [1] is described as follows: DHA pharmacokinetics in NSG mice after oral artesunate, one-compartment model. As to conditions: mouse, whole blood. The format is in vivo.
Description: A volume of 25 μL of whole-blood samples was collected via the tail vein from individual mice at 0.75, 1.5, 3, 8, 26, 50, and 74 h from the 50-mg/kg 4-daily-dose group and at 0.75, 1.5, 3, and 8 h from the 200-mg/kg single-dose group. […] Samples were vortexed for 20 s before being stored at −80°C.
Briefly, the model is defined as follows: (2) C(t)=D×ka/Vd/F(ka−CL/Vd) ×[exp⁡(−CL/Vd×(t−tlag))− exp⁡(−ka×(t−tlag)) ], where Vd/F (L) is the apparent volume of distribution, tlag (h) is the lag time between administration and absorption, CL/F (L/h) is the apparent drug clearance, ka is the rate of drug absorption, and D is the dose given to each subject. The model was fit with and without a lag for the absorption.
We used a least-square approach when fitting the ex vivo regrowth assay to estimate the concentration of viable parasites. […] When fitting the pharmacodynamic model, we first fit the pretreatment parasite concentration data for each human subject with the parasite growth model (equation 3) and estimated the distribution of parasite stages at the time of treatment and the parasite multiplication factor (PMF) when drug is not present. […]
Series [2] in a line: DHA pharmacokinetics in human volunteer infection study after artesunate. Type of series: in vivo, humans. The text has this:
(§1) The human data used in this study were obtained from a randomized clinical trial (ACTRN12617001394336) ([24]) and the associated exploratory viability study ([19]). Briefly, 5 volunteers were infected by intravenous injection of blood-stage 3D7 P. falciparum parasites.
Briefly, the model is defined as follows: (2) C(t)=D×ka/Vd/F(ka−CL/Vd) ×[exp(−CL/Vd×(t−tlag))− exp(−ka×(t−tlag)) ], where Vd/F (L) is the apparent volume of distribution, tlag (h) is the lag time between administration and absorption, CL/F (L/h) is the apparent drug clearance, ka is the rate of drug absorption, and D is the dose given to each subject. The model was fit with and without a lag for the absorption. The absorption was too fast to be observed in mice, and the one-compartment open model without a lag term fit the murine data best.
A one-compartment model with a first-order absorption and a lag, fit the human data best.
We used a least-square approach when fitting the ex vivo regrowth assay to estimate the concentration of viable parasites. […] When fitting the pharmacodynamic model, we first fit the pretreatment parasite concentration data for each human subject with the parasite growth model (equation 3) and estimated the distribution of parasite stages at the time of treatment and the parasite multiplication factor (PMF) when drug is not present. For the mice, pretreatment parasitemia curves were not detailed enough to allow fitting to estimate parasite life stage distributions and PM: instead, we estimated the PMF for each mouse from the in vivo recrudescence curves after treatment (fitting a tobit regression model using R package censReg) (Fig. 3), and we estimated the life stage distribution using the life stages from flow cytometric analysis (outlined in section C in the supplemental material). […] We fit this model to all data on parasite viability and total circulating parasitemia from mice and humans simultaneously with a variety of parameters constrained to be equivalent between mice and humans, in order to test which parameters, if any, were required to be different between the two hosts in order to best explain the data. We compared these models using the likelihood ratio test (for nested models) and the Akaike information criterion (AIC). A model with fewer parameters was deemed a better fit of the data unless the likelihood ratio test yielded a P value of […] (for nested models) or the difference in AIC of >10 for nonnested models.

Series [3] relates to P. falciparum 3D7. The series is described as follows: PK/PD model of parasite killing and clearance, parameters for mice. Type of series: in vivo. The text has this:
(§2) To model the drug action in both mice and humans, we used a pharmacodynamic (PD) model in which viable parasites are growing at rate g (per hour) and killed at rate κ (per hour). The dead parasites are then removed at a separate rate, δ (per hour). […] The latter observation is consistent with observations of slower parasite clearance after drug treatment in the NSG mouse model compared with human infection ([27]).
(§3) To model the cyclical growth of P. falciparum parasites, we used a previously published age-structured model of parasite growth, which tracks the distribution of parasite stages developing in time ([40]): (3) vT(a,T)+va(a,T)=0 where, v is the density of parasites at time T postinfection and age a. In this equation, subscripts indicate the partial derivative of v with respect to the subscript variable. […] The constant PMF is the parasite multiplication factor. Since parasites older than approximately 24 h of age are sequestered and no longer in circulation, the total number of circulating viable parasites (V) at any time is given by V(T)= ∫0asv(a,T)da where as is the age that parasites sequester. Importantly, as has been reported previously, the Plasmodium falciparum 3D7 strain used in these studies has an approximately 40-h blood-stage cycle ([41], [42]), so the maximum age of parasites is taken to be A=40 h.
(§4) We extended an existing age-structured model of parasite growth ([43]) to include drug killing of parasites. […] The model has two parasite compartments: one for viable parasites and one for nonviable parasites. The model of drug killing of viable parasites and host removal of nonviable parasites after treatment is defined as follows: vt(a,t)+va(a,t)= −κ(a,C(t))×v(a,t) (4) ut (a,t)=κ(a,C(t))×v(a,t)−δ×u(a,t) for a>0 where v(a,t) and u(a,t) are the density of viable and nonviable parasites of age a at time t posttreatment, respectively. […] The parameter δ is the rate of host removal of nonviable parasites. The total concentrations of circulating V(t) viable and nonviable U(t) parasites at time t are defined as follows: V(t)= ∫0aSv(a,t)da U(t)= ∫0aSu(a,t)da where as is the parasite sequestration age. We assume that the parasites are not sequestering in mice, in which case, as=A (the length of the parasite blood-stage life cycle), and that parasites sequester at as=A/2 in humans ([46]).
(§5) The maximum killing rate m(a) is a function of the parasite age since very-late-stage parasites are not killed by treatment ([47]).
(§6) As in previous studies, the age above which late-stage parasites survive treatment (aschiz) is taken to be the final 4 h of a 48-h life cycle ([48], [49]). The malaria parasite strain used in this study has a 40-h life cycle ([42], [46]), and we take aschiz as the last 4/48th of the life cycle. […]

Series [4] deals with P. falciparum 3D7. Kind of series: PK/PD model of parasite killing and clearance, parameters for humans. The format is in vivo. As to conditions: human data from ref 19.
From the text: as §2, §1, §3, §4
The maximum killing rate m(a) is a function of the parasite age since very-late-stage parasites are not killed by treatment ([47]). […]

Series [5] concerns P. falciparum 3D7. Kind of series: PK/PD model of parasite killing, parameters common to humans and mice. Type of series: in vivo, Plasmodium falciparum.
From the text: as §2, §3, §4, §5, §6

On the set-up of series [6]: method as in earlier work. As to conditions: humans, non-compartmental analysis, population mean (CV), ref 4 (supplement; Watts et al. 2020), cited from earlier work.
For series [7] the following is noted: mouse, literature, cited from earlier work.
Series [8] relates to P. falciparum Pf3D7^0087/N9. The series is described as follows: Artesunate efficacy in the murine P. falciparum NSG model: parasitemia and parasite viability (ex vivo regrowth assay). Set-up: species or system Plasmodium falciparum. The settings on record: NSG mice, first 24 h, single oral dose 200 vs 50 mg/kg.
Description: Compound efficacy was assessed in the murine P. falciparum NSG model, as described by Jimenez-Diaz et al. ([38]). […] These mice had been engrafted with human erythrocytes 14 days earlier (generously provided by the Blood Bank in Zürich, Switzerland). Prior to compound treatment, mice were intravenously infected with 2 × 10^5 P. falciparum Pf3D7^0087/N9-infected erythrocytes (day 0). On day 3 after infection, mice were randomly allocated to treatments that were administered orally. Parasitemia was measured by microscopy. Chimerism was monitored by flow cytometry using anti-murine erythrocyte TER119 monoclonal antibody (Pharmingen, San Diego, CA) and SYTO-16 and then analyzed by flow cytometry in serial blood samples (2 μL) collected every day until the completion of the experiment. Parasite recrudescence was detected by microscopy.
Prior to each treatment and after 8, 24, 48, 72, 96 and 168 h, 40 μL of blood was collected using a heparinized capillary and transferred into 10 mL of 37°C preheated medium. The suspension was centrifuged (5 min at 290 × g) and the supernatant discarded.
For the ex vivo regrowth assay (ERA), 10-μL pellets of the washed mouse blood sample were processed as described above for the IRA.
To estimate parasite viability, we fitted the data from the regrowth assay with a mathematical model of parasite growth as described in reference [19]. […]
The mark [9] stands for this setting: humans, one compartment model, population estimate (95% CI).
Where [10] appears, read: model with EC50 and γ common to humans and mice.
Where [11] appears, read: model with Emax and γ common to humans and mice.
Setting [12] is: assumes average mouse weight of 25 g.

Each structure is given as a SMILES string. Values after ≈ are worked out from the molar mass of the structure shown. Values joined by “and” are separate entries in the source; they are usually repeats but may differ in a detail not shown here. Identical values can stand only once. Like-named read-outs stand apart in the source and are kept apart here.

As for `C[C@H]1[C@@H](O)O[C@@H]2O[C@@]3(C)CC[C@H]4[C@H](C)CC[C@@H]1[C@@]24OO3` [DHA, dihydroartemisinin], the half-life in series [1] (mice, computed from CL and Vd, read-out: t1/2, half-clearance time (converted)) is 24 min; in series [2] (human, blood, 2 mg/kg, humans, computed from CL and Vd, read-out: t1/2, half-clearance time (converted)), 27 min. Besides, the Vd/F in series [1] (read-out: Vd/F, apparent volume of distribution) was found to be 0.55 L; in series [2] (human, blood, 2 mg/kg, read-out: Vd/F, apparent volume of distribution), 166 L. The “CL/F, apparent clearance” value in series [2] (humans (n = 5), artesunate 2 mg/kg, population estimate (95% CI), one-compartment model fitted to data from reference 24) is 254.5 L/h and 254.5 (144.5, 364.5) L/h; in series [7] (setting [12]), 1.53 L/h; in series [7], 1.98 L/h. For the same compound, the “Dose-Normalised AUC” value in series [2] (humans, one compartment model, average of volunteers, bootstrap confidence interval) is given as 5.34 (3.83, 6.52) μg h L^-1 mg^-1; in series [6] (ART-R infection), 6.3 (89.9) μg h L^-1 mg^-1; in series [6] (ART-S infection) it was 7.5 (33.2) μg h L^-1 mg^-1. Besides, the “ka, absorption rate” value in series [2] (setting [9]) was 2.29 h⁻¹. Besides, in series [2] (setting [9]), the “tlag, lag-time” value is given as 0.62 (0.4, 0.83) h. For the same compound, the EC50 in the series on P. falciparum 3D7 [3] (Plasmodium falciparum, 3D7, model with Emax and γ common to humans and mice, read-out: EC50M, drug concentration to reach the half-maximum killing rate in mice) came out at 1.32 ng/mL (≈ 4.64 nM); with P. falciparum 3D7 [4] (Plasmodium falciparum, 3D7, model with Emax and γ common to humans and mice, read-out: EC50H, drug concentration to reach the half-maximum killing rate in humans) it was 0.0025 ng/mL (≈ 0.00879 nM); in the series on P. falciparum 3D7 [5] (Plasmodium falciparum, 3D7, model with EC50 and γ common to humans and mice, different Emax, read-out: EC50, drug concentration to reach the half-maximum killing rate), 0.0074 ng/mL (≈ 0.026 nM). Besides, the “EmaxM, maximum killing rate in mice” value with P. falciparum 3D7 [3] (setting [10]) came out at 0.74 h⁻¹. Moreover, the “EmaxH, maximum killing rate in humans” value with P. falciparum 3D7 [4] (setting [10]) was 1.45 h⁻¹. Also, the “γ, Hill coefficient” value in the series on P. falciparum 3D7 [5] (setting [10]) was 0.70; with P. falciparum 3D7 [5] (setting [11]), 0.41. The “Emax, maximum killing rate” value in the series on P. falciparum 3D7 [5] (model with Emax and γ common to humans and mice, different EC50s) stood at 1.34 h⁻¹. Moreover, the “V/F, apparent volume of distribution” value in series [6] (ART-R infection (n = 13)) is recorded as 221.1 (53.6) L; in series [6] (ART-S infection (n = 9)), 310.3 (119.4) L. Also, the entries for the “Vd/F, apparent volume of distribution” value in series [7] (setting [12]) and in series [7] were 0.91 L and 0.85 L, respectively. Further, the “t1/2, half-clearance time” value in series [7] was 0.41 ([50]) h.
As for `C[C@H]1[C@H](OC(=O)CCC(=O)O)O[C@@H]2O[C@@]3(C)CC[C@H]4[C@H](C)CC[C@@H]1[C@@]24OO3` [artesunate], the “increase in the decline in total parasitemia on increasing dose from 50 to 200 mg/kg” value in series [8] was found to be 2.2 fold. Also, the “increase in the decline in viability on increasing dose from 50 to 200 mg/kg” value in series [8] (regrowth assay) came to 23.9 fold. The “δM, dead parasite clearance rate in mice” value in the series on P. falciparum 3D7 [3] (setting [10]) and in the series on P. falciparum 3D7 [3] (setting [11]) was 0.097 h⁻¹ in each case. Besides, the “δH, dead parasite clearance rate in humans” value with P. falciparum 3D7 [4] (setting [10]) and in the series with P. falciparum 3D7 [4] (setting [11]) was 0.18 h⁻¹ in each case.
